US4622389A, “Novel substrate for determining the activity of blood coagulation factor Xa (Stuart-Prower factor)” (Nitto Poseki Co., Ltd., priority 1984, dated 1986)
Residues, ends and D or L forms follow the SMILES beside them. *: point of attachment. pNA = O=[N+]([O-])c1ccc(N*)cc1; Bz = O=C(c1ccccc1)*

Tests used:
kallikrein (KL) = target: T1, kallikrein (KL) (Sus scrofa, UniProt P00752); experiment: Substrate specificity test: reaction of substrates with kallikrein; type: biochemical, Swine; details: So = 0.4 mM/l, 5 min reaction at 37° C.
T1 construct: purchased Sigma Chemical Co., U.S.A
T1 sequence (P00752 8-246): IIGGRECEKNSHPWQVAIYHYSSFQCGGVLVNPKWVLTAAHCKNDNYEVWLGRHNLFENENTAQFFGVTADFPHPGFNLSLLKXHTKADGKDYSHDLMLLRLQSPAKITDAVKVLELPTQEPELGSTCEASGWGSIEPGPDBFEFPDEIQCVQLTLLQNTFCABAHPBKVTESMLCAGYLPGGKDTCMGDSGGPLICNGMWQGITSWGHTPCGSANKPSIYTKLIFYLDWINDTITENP
Method: (§1) The specificities of newly synthesized substrates were tested by reacting them with various enzymes as follows.
(§2) (1) Substrate solution: 2 mM/liter of H2 O
(§3) (2) Buffer solutions: The concentrations of each of tris(hydroxymethyl)aminomethane [hereinafter referred to as "Tris"], NaCl and CaCl2, as well as pH were specified as follows for the respective enzymes. […]
(§4) (4) Reaction Stopper (PNA): 10%-acetic acid
(§5) (5) Color forming agent (CHA): Pentacyanoamineferroate
(§6) (6) Method of determination:
(§7) 0.3 Milliter buffer solution and 0.1 ml of enzyme reagent were collected in a hard glass test tube of which surface being treated with silicone, or a plastic test tube and preheated in a thermostat at 37° C. for 5 minutes. Precisely 5 minutes after the reaction was started, 2.0 ml of reaction stopper solution or reactionterminating color forming reagent was added to terminate the enzyme reaction. The reaction mixture was allowed to stand at 37° C. for 10 minutes and then the adsorbance at 405 nm or 700 nm was measured.

thrombin (TH) = target: T2, thrombin (TH) (Bos taurus, UniProt P00735); experiment: Substrate specificity test: reaction of substrates with thrombin; type: biochemical, Bovine; details: for absorbance (O.D.), TH: So = 0.4 mM/l, 5 min reaction at 37° C.
T2 construct: proteolyze factor II (prothrombin) at two points of peptide chain to turn it into factor IIa (thrombin); purchased Mochida Pharmaceutical Co., Ltd., Japan
Method: as §1, §2, §3, §4, §5, §6, §7

factor Xa (FXa) = target: T3, factor Xa (FXa) (Homo sapiens, UniProt P00742); experiment: Substrate specificity test: reaction of substrates with FXa, absorbance of liberated chromogen; type: biochemical; details: for absorbance (O.D.), FXa: So = 0.4 mM/l, 5 min reaction at 37° C.
T3 construct: purchased Bohringer Mannheim, GmbH, West Germany
T3 sequence (P00742 235-488 limits assumed): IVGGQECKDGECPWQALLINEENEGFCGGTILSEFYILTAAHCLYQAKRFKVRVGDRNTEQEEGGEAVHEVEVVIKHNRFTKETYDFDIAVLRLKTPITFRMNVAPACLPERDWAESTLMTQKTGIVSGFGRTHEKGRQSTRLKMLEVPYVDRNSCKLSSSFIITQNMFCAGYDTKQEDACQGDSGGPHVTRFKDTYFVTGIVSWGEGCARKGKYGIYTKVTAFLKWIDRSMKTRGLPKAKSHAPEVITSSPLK
T3 sequence (P00742 41-179 partner limits assumed): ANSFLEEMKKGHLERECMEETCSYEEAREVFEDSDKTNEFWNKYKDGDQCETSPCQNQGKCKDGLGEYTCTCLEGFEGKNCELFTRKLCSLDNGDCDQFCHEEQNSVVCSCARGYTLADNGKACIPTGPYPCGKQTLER
Method: as §1, §2, §3, §4, §5, §6, §7

urokinase (UK) = target: T4, urokinase (UK) (Homo sapiens, UniProt P00749); experiment: Substrate specificity test: reaction of substrates with urokinase; type: biochemical; details: for absorbance (O.D.), UK: So = 0.4 mM/l, 5 min reaction at 37° C.
T4 construct: purchased Mochida Pharmaceutical Co., Ltd., Japan
Method: as §1, §2, §3, §4, §5, §6, §7

plasmin (PL) = target: T5, plasmin (PL) (Homo sapiens, UniProt P00747); experiment: Substrate specificity test: reaction of substrates with plasmin; type: biochemical; details: for absorbance (O.D.), PL: So = 0.4 mM/l, 5 min reaction at 37° C.
T5 construct: Plasmin Human; purchased The Green Cross Corporation, Japan
T5 sequence (P00747 581-810 limits assumed): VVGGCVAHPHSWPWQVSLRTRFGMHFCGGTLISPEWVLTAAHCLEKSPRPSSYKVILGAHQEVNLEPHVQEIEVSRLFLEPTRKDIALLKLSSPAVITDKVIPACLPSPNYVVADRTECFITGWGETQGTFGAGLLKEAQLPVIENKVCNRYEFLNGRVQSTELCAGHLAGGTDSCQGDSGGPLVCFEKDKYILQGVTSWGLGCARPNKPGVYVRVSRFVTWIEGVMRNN
T5 sequence (P00747 97-580 partner limits assumed): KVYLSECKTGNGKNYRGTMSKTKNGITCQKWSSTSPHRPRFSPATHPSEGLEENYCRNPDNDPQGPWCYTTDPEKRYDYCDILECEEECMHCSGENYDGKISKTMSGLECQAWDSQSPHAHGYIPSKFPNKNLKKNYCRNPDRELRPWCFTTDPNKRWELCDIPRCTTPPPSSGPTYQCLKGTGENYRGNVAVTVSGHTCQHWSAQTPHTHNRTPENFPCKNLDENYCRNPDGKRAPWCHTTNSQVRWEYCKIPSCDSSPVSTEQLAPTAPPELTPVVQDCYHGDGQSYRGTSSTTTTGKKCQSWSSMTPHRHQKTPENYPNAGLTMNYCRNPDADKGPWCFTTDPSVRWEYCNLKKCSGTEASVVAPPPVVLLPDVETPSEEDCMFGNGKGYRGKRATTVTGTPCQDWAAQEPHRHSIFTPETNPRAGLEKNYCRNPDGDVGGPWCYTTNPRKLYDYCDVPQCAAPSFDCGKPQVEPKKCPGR
Method: as §1, §2, §3, §4, §5, §6, §7

Solubility in water = type: physicochemical
[1] = 700 nm (CHA substrates, pentacyanoamineferroate)
[2] = PS-2000N given as 100, initial substrate concentration So = 0.4 mmol

SMILES | absorbance (O.D.), KL (kallikrein (KL); [1]) | absorbance (O.D.), TH (thrombin (TH); [1]) | absorbance (O.D.), FXa (factor Xa (FXa); [1]) | absorbance (O.D.), UK (urokinase (UK); [1]) | absorbance (O.D.), PL (plasmin (PL); [1]) | other results
N=C(N)NCCC[C@H](NC(=O)CNC(=O)[C@@H](CCCCN)NC(=O)OCc1ccccc1)C(=O)Nc1ccc(O)c(C(=O)O)c1 [PS-2001, ZD-LysGlyArgCHA] | 0.0 O.D. | 0.006 O.D. | 0.314 O.D. | 0.004 O.D. | 0.005 O.D. | 
CC(=O)NCCCC[C@@H](NC(=O)OCc1ccccc1)C(=O)NCC(=O)N[C@@H](CCCNC(=N)N)C(=O)Nc1ccc(O)c(C(=O)O)c1 [PS-2002, ZD-Lys(Ac)GlyArgCHA] | 0.0 O.D. | 0.009 O.D. | 0.426 O.D. | 0.003 O.D. | 0.004 O.D. | 
CN(CC(=O)N[C@@H](CCCNC(=N)N)C(=O)Nc1ccc(O)c(C(=O)O)c1)C(=O)[C@@H](CCCCN)NC(=O)OCc1ccccc1 [PS-2004, ZD-LysSarArgCHA] | 0.0 O.D. | 0.006 O.D. | 0.292 O.D. | 0.0 O.D. | 0.0 O.D. | 
CC[C@H](C)[C@H](NC(=O)c1ccccc1)C(=O)N[C@@H](CCC(=O)O)C(=O)NCC(=O)N[C@@H](CCCN=C(N)N)C(=O)Nc1ccc([N+](=O)[O-])cc1 [S-2222, Bz-Ile-Glu-Gly-Arg-PNA, reference compound] (Bz-IEGR-pNA) |  |  |  |  |  | water solubility (Solubility in water): about 6 mmol/1
CC[C@H](C)[C@H](NC(=O)c1ccccc1)C(=O)N[C@@H](CCC(=O)O)C(=O)NCC(=O)N[C@@H](CCCNC(=N)N)C(=O)Nc1ccc([N+](=O)[O-])cc1 [S-2222, Bz-Ile-Glu-Gly-Arg-PNA, reference compound] (Bz-IEGR-pNA) |  |  |  |  |  | absorbance (O.D.), KL (kallikrein (KL); 405 nm (PNA substrates)): 0.013 O.D.; absorbance (O.D.), TH (thrombin (TH); 405 nm (PNA substrates)): 0.018 O.D.; Relative reactivity to enzymes, TH (thrombin (TH); [2]): 31%; absorbance (O.D.), FXa (factor Xa (FXa); 405 nm (PNA substrates)): 0.669 O.D.; Relative reactivity to enzymes, Fxa (factor Xa (FXa); [2]): 57%; absorbance (O.D.), UK (urokinase (UK); 405 nm (PNA substrates)): 0.035 O.D.; Relative reactivity to enzymes, UK (urokinase (UK); [2]): 40%; absorbance (O.D.), PL (plasmin (PL); 405 nm (PNA substrates)): 0.011 O.D.; Relative reactivity to enzymes, PL (plasmin (PL); [2]): 16%
